In general, Ki refers to a dissociation constant, usually derived from enzyme kinetics or from competition with a known ligand. The low end stands for a stronger hold on the target, the high end for a looser hold on the target.

This is an account of results in BindingDB's records for doi:10.1016/s0960-894x(99)00462-x (Abbott Laboratories, 1999).

The nature of the assay: Nicotinic acetylcholine receptor binding activity was determined by ability to displace [125I]alpha-BgT binding to rat brain membrane.
On to `CN1CC[C@@H](Oc2cccnc2)C1` [3-((R)-1-Methyl-pyrrolidin-3-yloxy)-pyridine], for which the Ki was > 10 µM.

`CN1CC[C@H](Oc2cccnc2)C1` [3-((S)-1-Methyl-pyrrolidin-3-yloxy)-pyridine]: the Ki was > 10 µM.

For the molecule `c1ncc(OC[C@@H]2CCN2)cn1` [5-((S)-1-Azetidin-2-ylmethoxy)-pyrimidine], the inhibitory constant (Ki) was > 10 µM.

Take `CN1CC[C@H]1COc1cncnc1` [5-((S)-1-Methyl-azetidin-2-ylmethoxy)-pyrimidine]: the Ki was > 10 µM.
